According to patent publication US12590338B2, “Method and device for detection of ampicillin-resistant non-typhoidal Salmonella” (priority 2018, dated 2026):

Test system: NTS clinical isolates
Assay: Antibiotics susceptibility test to ampicillin (CLSI disc inhibition zone and/or MIC); note: key: R = Resistant to ampicillin; S = Susceptible to ampicillin
Assay type: cell-based, non-typhoidal Salmonella
Protocol: Before the NGS study, the antimicrobial susceptibility to ampicillin in the 169 isolates was re-confirmed using the disc inhibition zones or MICs (FIG. 1). Then, the bacterial DNAs were extracted from 53 NTS isolates and NGS was performed using the Illumina© MiSeq sequencer. Subsequently, the NTS serotypes of 53 NTS clinical isolates were confirmed by multilocus sequence typing (MLST) as shown in Table 1. The big genomic data were analyzed to examine presence of plasmid-mediated genes or genetic mutations in the bacterial genome of Salmonella spp. and other bacteria reported in the PubMed, ARG-ANNOT, CARD, and ResFinder (FIG. 1).
The 169 NTS clinical isolates were tested for antimicrobial susceptibility based on (CLSI) guidelines. Briefly, bacteria were spread onto Mueller-Hinton MH agar, and co-incubated with antimicrobial disks (Oxoid, Cambridge, UK) of ampicillin individually at 37° C. for 18 hours. Another alternative is measurement of the minimum inhibitory concentrations (MICs) of ampicillin in serial dilutions of ampicillin co-cultured with bacterial solution of NTS isolates. Finally, the resistance to ampicillin in NTS isolates was determined according to the diameter of inhibition zone (≤13 mm) and/or the MIC of ampicillin>16 μg/mL according to the guideline of CLSI.

Measured: AMP-R

CC1(C)S[C@@H]2[C@H](NC(=O)[C@H](N)c3ccccc3)C(=O)N2[C@H]1C(=O)O [ampicillin]
R: NTS isolate SH-B2, serotype Enteritidis | NTS isolate SH-B5, serotype Enteritidis | NTS isolate SH-C4, serotype Typhimurium | NTS isolate SH-E1, serotype Unknown | NTS isolate SH-F4, serotype Typhimurium | NTS isolate SH-F5, serotype Enteritidis | NTS isolate SH-G2, serotype Typhimurium | NTS isolate SH-G3, serotype Enteritidis | NTS isolate SH-G5, serotype Albany | NTS isolate SH-H4, serotype Newport | NTS isolate TSAR-C1, serotype Schwarzengrund | NTS isolate TSAR-C2, serotype Schwarzengrund | NTS isolate TSAR-C3, serotype Schwarzengrund | NTS isolate TSAR-C4, serotype Typhimurium | NTS isolate TSAR-C5, serotype Choleraesuis | NTS isolate TSAR-C6, serotype Typhimurium | NTS isolate TSAR-C7, serotype Typhimurium | NTS isolate TSAR-C10, serotype Enteritidis | NTS isolate TSAR-C13, serotype Stanley | NTS isolate TSAR-C16, serotype Typhimurium | NTS isolate TSAR-C19, serotype Stanley | NTS isolate TSAR-E5, serotype Choleraesuis | NTS isolate TSAR-E9, serotype Choleraesuis | NTS isolate TSAR-E10, serotype Typhimurium | NTS isolate TSAR-E16, serotype Virchow | NTS isolate TSAR-E18, serotype Meleagridis | NTS isolate TSAR-E19, serotype Newport | NTS isolate TSAR-E20, serotype Typhimurium | NTS isolate TSAR-N5, serotype Typhimurium | NTS isolate TSAR-N8, serotype Typhimurium | NTS isolate TSAR-N9, serotype Montevideo | NTS isolate TSAR-N15, serotype Schwarzengrund | NTS isolate TSAR-N16, serotype Agona | NTS isolate TSAR-N19, serotype Enteritidis | NTS isolate TSAR-S13, serotype Albany | NTS isolate TSAR-S14, serotype Typhimurium | NTS isolate TSAR-S15, serotype Enteritidis | NTS isolate TSAR-S16, serotype Agona | NTS isolate TSAR-S17, serotype Newport | NTS isolate TSAR-S18, serotype Newport | NTS isolate TSAR-S19, serotype Agona | NTS isolate TSAR-S20, serotype Livingstone
S: NTS isolate SH-12, serotype Amsterdam | NTS isolate SH-A1, serotype Enteritidis | NTS isolate SH-C2, serotype Newport | NTS isolate SH-C3, serotype Enteritidis | NTS isolate SH-D2, serotype Enteritidis | NTS isolate SH-D4, serotype Enteritidis | NTS isolate SH-D5, serotype Typhimurium | NTS isolate SH-E2, serotype Virchow | NTS isolate SH-E3, serotype Newport | NTS isolate SH-G1, serotype Stanley | NTS isolate SH-H3, serotype Derby
